Experimental data as given in US9073918B2, “Pyrazolo[4,3-b]pyridine-7-amine inhibitors of ALK5” (Takeda Pharmaceutical Company Limited, priority 2010, dated 2015).

The compounds below were run against T1, TGF-β R1 ALK5 (Homo sapiens, UniProt P36897) (assay: In vitro inhibition of ALK5 (LanthaScreen activity assay, TR-FRET)).
T1 construct: purchased Invitrogen PV5837
T1 sequence (P36897 34-503): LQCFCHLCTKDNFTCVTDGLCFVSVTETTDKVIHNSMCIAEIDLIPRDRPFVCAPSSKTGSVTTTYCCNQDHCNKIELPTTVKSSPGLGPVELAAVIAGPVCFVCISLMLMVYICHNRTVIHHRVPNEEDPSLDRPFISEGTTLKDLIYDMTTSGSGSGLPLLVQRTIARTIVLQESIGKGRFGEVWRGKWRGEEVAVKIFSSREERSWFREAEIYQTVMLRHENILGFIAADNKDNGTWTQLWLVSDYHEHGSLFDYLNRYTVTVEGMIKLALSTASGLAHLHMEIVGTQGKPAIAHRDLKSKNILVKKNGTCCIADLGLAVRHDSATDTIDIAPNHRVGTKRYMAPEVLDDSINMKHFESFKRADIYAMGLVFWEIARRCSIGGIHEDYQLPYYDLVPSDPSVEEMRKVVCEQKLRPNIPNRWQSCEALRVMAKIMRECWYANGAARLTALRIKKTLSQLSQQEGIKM
Format: biochemical
Method: Test compounds were screened for TGF-β R1 ALK5 inhibition by use of a LanthaScreen™ activity assay (PV5837 Invitrogen, Invitrogen Corp. Madison, Wis.).
In brief, the assay procedure was as follows:
Solutions of test compounds were prepared in DMSO and diluted two-fold serially.
Assays were incubated for 90 minutes at room temperature and then quenched by the addition of 60 mM EDTA and 8 nM Terbium labeled anti-pSMAD3 Antibody (M4337 from Invitrogen) giving a final concentration of 15 mM EDTA and 2 nM Terbium labeled anti-pSMAD3 Antibody. Phosphorylated peptide product was quantified by measuring an increase in TR-FRET on a BMG LABTECH PHERA star plus. Response is defined as the ratio of Channel A/Channel B. The response of a blank (uninhibited) using vehicle alone is also determined. Enzyme activity was defined as the response of uninhibited enzyme activity minus the response of assays containing no enzyme. The percent inhibition of ALK5 at a given compound concentration is defined as: 100%×[1−(response compound/response blank)]
where response compound is defined as the enzyme activity in the presence of test compound and response blank is defined as the uninhibited enzyme activity. The pIC50 value (negative log of the molar concentration of the compound that produces 50% inhibition) of a test compound is calculated by non-linear least squares curve fitting of the equation: Percent Inhibition=100%/(1+(10−pIC50/10 log [I])).
Where inhibition was measured in multiple experiments the value in Table 1 is an average. N.T. means not tested.

Question: How did the IC50 turn out when `Cc1cnc(-c2cc(Cl)ccc2F)nc1Nc1ccnc2cnn(CC(N)=O)c12` [Example 3, 2-(7-(2-(5-chloro-2-fluorophenyl)-5-methylpyrimidin-4-ylamino)-1H-pyrazolo[4,3-b]pyridin-1-yl)acetamide] was run?
Answer: Its IC50 is 6.31 nM.

Question: For `Cc1cnc(-c2cc(Cl)ccc2F)nc1Nc1ccnc2cn(CC(N)=O)nc12` [Example 4, 2-(7-(2-(5-chloro-2-fluorophenyl)-5-methylpyrimidin-4-ylamino)-2H-pyrazolo[4,3-b]pyridin-2-yl)acetamide], which IC50 is on record?
Answer: Its IC50 is 6.31 nM.

Question: How did the IC50 turn out when `Cc1ccc(F)c(-c2cc(Nc3ccnc4cn(CC(C)(C)O)nc34)c(C)cn2)n1` [Example 8, 1-(7-(3′-fluoro-5,6′-dimethyl-2,2′-bipyridin-4-ylamino)-2H-pyrazolo[4,3-b]pyridin-2-yl)-2-methylpropan-2-ol] was run?
Answer: The IC50 was 251 nM.

Question: How did the IC50 turn out when `Cc1ccc(F)c(-c2cc(Nc3ccnc4cn(CCO)nc34)c(C)cn2)n1` [Example 9, 2-(7-(3′-fluoro-5,6′-dimethyl-2,2′-bipyridin-4-ylamino)-2H-pyrazolo[4,3-b]pyridin-2-yl)ethanol] was run?
Answer: Its IC50 is 7.94 nM.

Question: How did the IC50 turn out when `Cc1ccc(F)c(-c2cc(Nc3ccnc4cn[nH]c34)c(C)cn2)n1` [Example 11, N-(3′-fluoro-5,6′-dimethyl-2,2′-bipyridin-4-yl)-1H-pyrazolo[4,3-b]pyridin-7-amine] was run?
Answer: Its IC50 is 2.51 nM.

Question: With `Cc1cccc(-c2cc(Nc3ccnc4cn(CC(N)=O)nc34)c(C)cn2)n1` [Example 12, 2-(7-(5,6′-dimethyl-2,2′-bipyridin-4-ylamino)-2H-pyrazolo[4,3-b]pyridin-2-yl)acetamide] as the compound, how does the IC50 read?
Answer: Its IC50 is 31.6 nM.

Question: With `Cc1ccc(F)c(-c2cc(Nc3ccnc4cnn(CC(N)=O)c34)c(C)cn2)n1` [Example 13, 2-(7-(3′-fluoro-5,6′-dimethyl-2,2′-bipyridin-4-ylamino)-1H-pyrazolo[4,3-b]pyridin-1-yl)acetamide] as the compound, how does the IC50 read?
Answer: Its IC50 is 2.51 nM.

Question: With `Cc1ccc(F)c(-c2cc(Nc3ccnc4cn(CC(N)=O)nc34)c(C)cn2)n1` [Example 14, 2-(7-(3′-fluoro-5,6′-dimethyl-2,2′-bipyridin-4-ylamino)-2H-pyrazolo[4,3-b]pyridin-2-yl)acetamide] as the compound, how does the IC50 read?
Answer: The IC50 was 10 nM.

Question: `Fc1ccc(Cl)cc1-c1cc(Nc2ccnc3cn(CC4CCOCC4)nc23)ccn1` [Example 23, N-(2-(5-chloro-2-fluorophenyl)pyridin-4-yl)-2-((tetrahydro-2H-pyran-4-yl)methyl)-2H-pyrazolo[4,3-b]pyridin-7-amine] was tested. Which IC50 did it give?
Answer: Its IC50 is 316 nM.

Question: Which IC50 does the source give for `Fc1ccc(Cl)cc1-c1cc(Nc2ccnc3cnn(CC4CCOCC4)c23)ccn1` [Example 24, N-(2-(5-chloro-2-fluorophenyl)pyridin-4-yl)-1-((tetrahydro-2H-pyran-4-yl)methyl)-1H-pyrazolo[4,3-b]pyridin-7-amine] here?
Answer: Its IC50 is 1580 nM.

Question: With `Fc1ccc(Cl)cc1-c1cc(Nc2ccnc3cn(CC4CCCO4)nc23)ccn1` (stereo not drawn) [Example 25, N-(2-(5-chloro-2-fluorophenyl)pyridin-4-yl)-2-((tetrahydrofuran-2-yl)methyl)-2H-pyrazolo[4,3-b]pyridin-7-amine] as the compound, how does the IC50 read?
Answer: The IC50 was 2510 nM.

Question: `Fc1ccc(Cl)cc1-c1cc(Nc2ccnc3cnn(CC4CCNCC4)c23)ccn1` [Example 26, N-(2-(5-chloro-2-fluorophenyl)pyridin-4-yl)-1-(piperidin-4-ylmethyl)-1H-pyrazolo[4,3-b]pyridin-7-amine] was tested. Which IC50 did it give?
Answer: Its IC50 is 2510 nM.

Question: Which IC50 does the source give for `NC(=O)n1ncc2nccc(Nc3ccnc(-c4cc(Cl)ccc4F)c3)c21` [Example 30, 7-(2-(5-chloro-2-fluorophenyl)pyridin-4-ylamino)-1H-pyrazolo[4,3-b]pyridine-1-carboxamide] here?
Answer: Its IC50 is 50.1 nM.

Question: With `CN(C)C(=O)Cn1ncc2nccc(Nc3ccnc(-c4cc(Cl)ccc4F)c3)c21` [Example 38, 2-(7-(2-(5-chloro-2-fluorophenyl)pyridin-4-ylamino)-1H-pyrazolo[4,3-b]pyridin-1-yl)-N,N-dimethylacetamide] as the compound, how does the IC50 read?
Answer: Its IC50 is 251 nM.

Question: Which IC50 does the source give for `O=C1NCCN1CCn1ncc2nccc(Nc3ccnc(-c4cc(Cl)ccc4F)c3)c21` [Example 41, 1-(2-(7-(2-(5-chloro-2-fluorophenyl)pyridin-4-ylamino)-1H-pyrazolo[4,3-b]pyridin-1-yl)ethyl)imidazolidin-2-one] here?
Answer: Its IC50 is 316 nM.

Question: Which IC50 does the source give for `O=C(Cn1ncc2nccc(Nc3ccnc(-c4cc(Cl)ccc4F)c3)c21)N1CCOCC1` [Example 42, 2-(7-(2-(5-chloro-2-fluorophenyl)pyridin-4-ylamino)-1H-pyrazolo[4,3-b]pyridin-1-yl)-1-morpholinoethanone] here?
Answer: Its IC50 is 316 nM.

Question: With `NC(=O)Cn1ncc2nccc(Nc3ccnc(-c4cc(Cl)ccc4F)c3)c21` [Example 44, 2-(7-(2-(5-chloro-2-fluorophenyl)pyridin-4-ylamino)-1H-pyrazolo[4,3-b]pyridin-1-yl)acetamide] as the compound, how does the IC50 read?
Answer: The IC50 was 31.6 nM.

Question: With `CC(C(N)=O)n1cc2nccc(Nc3ccnc(-c4cc(Cl)ccc4F)c3)c2n1` (stereo not drawn) [Example 45, 2-(7-(2-(5-chloro-2-fluorophenyl)pyridin-4-ylamino)-2H-pyrazolo[4,3-b]pyridin-2-yl)propanamide] as the compound, how does the IC50 read?
Answer: Its IC50 is 50.1 nM.

Question: Which IC50 does the source give for `CCS(=O)(=O)n1cc2nccc(Nc3cc(-c4cc(Cl)ccc4F)ncc3C)c2n1` [Example 56, N-(2-(5-chloro-2-fluorophenyl)-5-methylpyridin-4-yl)-2-(ethylsulfonyl)-2H-pyrazolo[4,3-b]pyridin-7-amine] here?
Answer: The IC50 was 12.6 nM.

Question: With `Cc1cc(Nc2ccnc3cn[nH]c23)cc(-c2cc(Cl)ccc2F)n1` [Example 57, N-(2-(5-chloro-2-fluorophenyl)-6-methylpyridin-4-yl)-1H-pyrazolo[4,3-b]pyridin-7-amine] as the compound, how does the IC50 read?
Answer: Its IC50 is 39.8 nM.

Question: How did the IC50 turn out when `CCNC(=O)n1ncc2nccc(Nc3cc(C)nc(-c4cc(Cl)ccc4F)c3)c21` [Example 59, 7-(2-(5-chloro-2-fluorophenyl)-6-methylpyridin-4-ylamino)-N-ethyl-1H-pyrazolo[4,3-b]pyridine-1-carboxamide] was run?
Answer: The IC50 was 316 nM.

Question: How did the IC50 turn out when `CCS(=O)(=O)n1cc2nccc(Nc3cc(C)nc(-c4cc(Cl)ccc4F)c3)c2n1` [Example 61, N-(2-(5-chloro-2-fluorophenyl)-6-methylpyridin-4-yl)-2-(ethylsulfonyl)-2H-pyrazolo[4,3-b]pyridin-7-amine] was run?
Answer: The IC50 was 251 nM.

Question: How did the IC50 turn out when `CCNC(=O)n1ncc2nccc(Nc3ccnc(-c4cc(Cl)c(F)cc4F)c3)c21` [Example 62, 7-(2-(5-chloro-2,4-difluorophenyl)pyridin-4-ylamino)-N-ethyl-1H-pyrazolo[4,3-b]pyridine-1-carboxamide] was run?
Answer: The IC50 was 12.6 nM.

Question: How did the IC50 turn out when `Cc1ccc(F)c(-c2cc(Nc3ccnc4c[nH]nc34)ccn2)n1` [Example 64, N-(3′-fluoro-6′-methyl-2,2′-bipyridin-4-yl)-2H-pyrazolo[4,3-b]pyridin-7-amine] was run?
Answer: Its IC50 is 126 nM.

Question: `Cc1ccc(F)c(-c2cc(Nc3ccnc4cn(CCO)nc34)ccn2)n1` [Example 72, 2-(7-(3′-fluoro-6′-methyl-2,2′-bipyridin-4-ylamino)-2H-pyrazolo[4,3-b]pyridin-2-yl)ethanol] was tested. Which IC50 did it give?
Answer: The IC50 was 158 nM.

Question: `CNC(=O)n1ncc2nccc(Nc3ccnc(-c4nc(C)ccc4F)c3)c21` [Example 74, 7-(3′-fluoro-6′-methyl-2,2′-bipyridin-4-ylamino)-N-methyl-1H-pyrazolo[4,3-b]pyridine-1-carboxamide] was tested. Which IC50 did it give?
Answer: The IC50 was 39.8 nM.

Question: Which IC50 does the source give for `CNC(=O)n1ncc2nccc(Nc3ccnc(-c4cc(C)ccc4F)c3)c21` [Example 75, 7-(2-(2-fluoro-5-methylphenyl)pyridin-4-ylamino)-N-methyl-1H-pyrazolo[4,3-b]pyridine-1-carboxamide] here?
Answer: The IC50 was 25.1 nM.
